Experimental data as given in patent US12419305B2, “Antimicrobial compositions” (Firmenich SA, priority 2018, dated 2025).
Like-named read-outs stand apart in the source and are kept apart here.

Experiments:
C. xerosis ATCC 373 = test: BCT test (bacterial contact time), 120 s, log reduction / effect fraction; CI by Compusyn; type: cell-based; details: Corynebacterium xerosis, ATCC373, 2 min
Method in brief: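 C. xerosis cells grown in BHI-TW80 at 37 °C to OD600 1.6 were exposed to ethanolic perfume compositions for 120 s. Viable counts (log CFU) came from serial dilution and OD600 growth after 37 °C incubation, giving log reduction versus ethanol control. CI was computed from concentrations and effect fractions, with <0.9 taken as synergy.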

E. coli ATCC 10536 = test: BCT test (bacterial contact time), 45 s, log reduction / effect fraction; CI by Compusyn; type: cell-based, Escherichia coli; details: Escherichia coli, ATCC10536, 45 s; for log reduction at […] strength: dose […] w/v
Method in brief: (§1)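 Perfume ingredients, alone or combined, in ethanol were mixed 1:1 with ~1×10^8 CFU/mL log-phase bacteria in TSB for the stated contact time. Survivors were estimated by serial dilution and OD600 growth at 37 °C; log reduction versus ethanol control. CI from effect fractions via Compusyn (<0.9 synergy, >1.0 antagonism).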

S. aureus ATCC 6538 = test: BCT test (bacterial contact time), 60 s, log reduction / effect fraction; CI by Compusyn; type: cell-based, Staphylococcus aureus; details: Staphylococcus aureus, ATCC6538, 1 min, in 25% EtOH
Method in brief: as §1

[1] = test system: Pseudomonas aeruginosa ATCC 15442; test: as above; type: cell-based; details: Pseudomonas aeruginosa, ATCC15442, 1 min, BCT 60 s, in 25% EtOH
Method in brief: as §1

[2] = test system: Salmonella enterica ATCC 10708; test: as above; type: cell-based; details: Salmonella enterica, ATCC10708, 1 min
Method in brief: as §1

## CC(C=O)Cc1ccc2c(c1)OCO2 (stereo not shown) [Heliopropanal, 3-(1,3-Benzodioxol-5-yl)-2-methylpropanal]
C. xerosis ATCC 373
  log reduction at 0.2 % strength: 0.1
  log reduction at 0.25 % strength: 0.3
  log reduction at 0.3 % strength: 1.4
  log reduction at 0.35 % strength: 1.8
  log reduction at 0.4 % strength: 2.2
E. coli ATCC 10536; dose 0.100 % w/v, 45 s, in 20% EtOH
  log reduction at 0.1 % strength: 1
E. coli ATCC 10536; dose 0.1% w/v, contact 45 s, 20% EtOH
  log reduction at 0.1 % strength: 0.5
E. coli ATCC 10536; dose 0.120 % w/v, 45 s, in 20% EtOH
  log reduction at 0.12 % strength: 2.1
E. coli ATCC 10536; dose 0.12% w/v, contact 45 s, 20% EtOH
  log reduction at 0.12 % strength: 1.1
E. coli ATCC 10536; dose 0.140 % w/v, 45 s, in 20% EtOH
  log reduction at 0.14 % strength: 4.3
E. coli ATCC 10536; dose 0.14% w/v, contact 45 s, 20% EtOH
  log reduction at 0.14 % strength: 3.1
E. coli ATCC 10536; dose 0.160 % w/v, 45 s, in 20% EtOH
  log reduction at 0.16 % strength: 7.3
E. coli ATCC 10536; dose 0.16% w/v, contact 45 s, 20% EtOH
  log reduction at 0.16 % strength: 7
E. coli ATCC 10536; 45 s, in 20% EtOH
  log reduction at […] strength: 7.3
E. coli ATCC 10536; contact 45 s, 20% EtOH
  log reduction at […] strength: 7.4
S. aureus ATCC 6538; Dose 0.15 % w/v, BCT 60 s
  log reduction at 0.15 % strength: 0.4
S. aureus ATCC 6538; Dose 0.175 % w/v, BCT 60 s
  log reduction at 0.175 % strength: 0.4
S. aureus ATCC 6538; Dose 0.200 % w/v, BCT 60 s
  log reduction at 0.2 % strength: 1.3
S. aureus ATCC 6538; Dose 0.225 % w/v, BCT 60 s
  log reduction at 0.225 % strength: 3.5
S. aureus ATCC 6538; Dose 0.25 % w/v, BCT 60 s
  log reduction at 0.25 % strength: 7.3
S. aureus ATCC 6538; dose 0.150 % w/v, 60 s
  log reduction at 0.15 % strength: 0.4
S. aureus ATCC 6538; dose 0.200 % w/v, 60 s
  log reduction at 0.2 % strength: 1.2
S. aureus ATCC 6538; dose 0.225 % w/v, 60 s
  log reduction at 0.225 % strength: 4.2
S. aureus ATCC 6538; dose 0.250 % w/v, 60 s
  log reduction at 0.25 % strength: 7
S. aureus ATCC 6538; dose 0.300 % w/v, 60 s
  log reduction at 0.3 % strength: 7.3
[1]; Dose 0.175 % w/v
  log reduction at 0.175 % strength: 4.8
[1]; Dose 0.2 % w/v
  log reduction at 0.2 % strength: 7.2
[1]; Dose 0.25 % w/v
  log reduction at 0.25 % strength: 7.4
[2]
  log reduction at 0.05 % strength: 0
  log reduction at 0.1 % strength: 0.8
  log reduction at 0.12 % strength: 2.9
  log reduction at 0.13 % strength: 3.9
  log reduction at 0.14 % strength: 5.5

## CC(C)=CCC/C(C)=C/CO [Geraniol Pur]
C. xerosis ATCC 373; dose 0.1% w/v, contact 120 s, 25% EtOH
  log reduction at 0.1 % strength: 0.9
C. xerosis ATCC 373; dose 0.125% w/v, contact 120 s, 25% EtOH
  log reduction at 0.125 % strength: 3.6
C. xerosis ATCC 373; dose 0.15% w/v, contact 120 s, 25% EtOH
  log reduction at 0.15 % strength: 4.8
C. xerosis ATCC 373; dose 0.175% w/v, contact 120 s, 25% EtOH
  log reduction at 0.175 % strength: 6.8
C. xerosis ATCC 373; dose 0.2% w/v, contact 120 s, 25% EtOH, read-out: Log reduction
  log reduction at 0.2 % strength: 7
E. coli ATCC 10536; dose 0.040 % w/v, 45 s, in 20% EtOH
  log reduction at 0.04 % strength: 0.4
E. coli ATCC 10536; dose 0.050 % w/v, 45 s, in 20% EtOH
  log reduction at 0.05 % strength: 1.9
E. coli ATCC 10536; dose 0.060 % w/v, 45 s, in 20% EtOH
  log reduction at 0.06 % strength: 6.4
E. coli ATCC 10536; dose 0.070 % w/v, 45 s, in 20% EtOH
  log reduction at 0.07 % strength: 7.4
E. coli ATCC 10536; dose 0.080 % w/v, 45 s, in 20% EtOH
  log reduction at 0.08 % strength: 7.4
S. aureus ATCC 6538; dose 0.050 % w/v, 60 s
  log reduction at 0.05 % strength: 0.2
S. aureus ATCC 6538; dose 0.060 % w/v, 60 s
  log reduction at 0.06 % strength: 0.4
S. aureus ATCC 6538; dose 0.070 % w/v, 60 s
  log reduction at 0.07 % strength: 1.5
S. aureus ATCC 6538; dose 0.080 % w/v, 60 s
  log reduction at 0.08 % strength: 4
S. aureus ATCC 6538; dose 0.100 % w/v, 60 s
  log reduction at 0.1 % strength: 7.3
[1]; Dose 0.03 % w/v
  log reduction at 0.03 % strength: 0.2
[1]; Dose 0.040 % w/v
  log reduction at 0.04 % strength: 1.4
[1]; Dose 0.05 % w/v
  log reduction at 0.05 % strength: 3.9
[1]; Dose 0.06 % w/v
  log reduction at 0.06 % strength: 5.9
[1]; Dose 0.08 % w/v
  log reduction at 0.08 % strength: 7.5
[2]; Dose 0.025 % w/v, BCT 60 s, in 25% EtOH
  log reduction at 0.025 % strength: 0.2
[2]; Dose 0.03 % w/v, BCT 60 s, in 25% EtOH
  log reduction at 0.03 % strength: 0.2
[2]; Dose 0.04 % w/v, BCT 60 s, in 25% EtOH
  log reduction at 0.04 % strength: 2.4
[2]; Dose 0.045 % w/v, BCT 60 s, in 25% EtOH
  log reduction at 0.045 % strength: 3.6
[2]; Dose 0.05 % w/v, BCT 60 s, in 25% EtOH, read-out: Log reduction
  log reduction at 0.05 % strength: 4.9
